{"source": "patent US10946011B2", "about": "(Martin Pharmaceuticals Inc., priority 2018, dated 2021)", "origin": "cited, not measured here"}
{"smiles": "OCC(CO)(CO)NCCCNC(CO)(CO)CO", "note": "[BIS-Tris Propane]", "values": [{"measurement": "PKa", "value": 6.80}]}
